Results from publication PMC5971447, “Selective inhibition of intestinal guanosine 3′,5′-cyclic monophosphate signaling by small-molecule protein kinase inhibitors” (The Journal of Biological Chemistry, 2018).

How the values were obtained:
cGKII = molecular target: T1, cGKII (Homo sapiens, UniProt Q13237); experiment: […]-ATP peptide (2A3) phosphorylation; assay type: biochemical; settings: read-out: pIC50 in vitro (converted)
T1 construct: gene PRKG2; recombinant full-length, His-tagged, baculovirus insect cell expression; dimer
T1 sequence (Q13237 2-762): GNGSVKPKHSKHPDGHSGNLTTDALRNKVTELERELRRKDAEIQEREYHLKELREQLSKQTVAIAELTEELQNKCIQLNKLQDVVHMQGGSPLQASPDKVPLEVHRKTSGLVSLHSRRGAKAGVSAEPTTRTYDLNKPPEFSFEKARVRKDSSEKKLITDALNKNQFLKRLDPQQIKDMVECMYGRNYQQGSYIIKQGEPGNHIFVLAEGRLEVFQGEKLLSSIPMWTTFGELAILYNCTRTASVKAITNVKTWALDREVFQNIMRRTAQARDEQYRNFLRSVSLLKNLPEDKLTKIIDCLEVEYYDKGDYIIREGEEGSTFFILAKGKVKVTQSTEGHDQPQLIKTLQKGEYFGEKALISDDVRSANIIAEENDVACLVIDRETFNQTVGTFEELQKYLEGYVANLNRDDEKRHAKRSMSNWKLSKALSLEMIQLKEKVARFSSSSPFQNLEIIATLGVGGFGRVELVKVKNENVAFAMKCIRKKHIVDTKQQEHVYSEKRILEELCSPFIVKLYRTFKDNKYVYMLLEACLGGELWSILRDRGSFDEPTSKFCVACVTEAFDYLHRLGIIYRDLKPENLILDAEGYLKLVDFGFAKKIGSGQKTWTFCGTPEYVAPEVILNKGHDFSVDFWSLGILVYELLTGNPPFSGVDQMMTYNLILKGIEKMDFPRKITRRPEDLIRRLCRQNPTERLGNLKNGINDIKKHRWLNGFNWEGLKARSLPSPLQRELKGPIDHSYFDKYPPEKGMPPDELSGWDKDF

cGKI = molecular target: T2, cGKI (Homo sapiens, UniProt Q13976); experiment: […]-ATP peptide (2A3) phosphorylation; assay type: biochemical; settings: 50 uM cGMP, pH 7.4, 5 mM MgCl2, 22 C
T2 construct: gene PRKG1; recombinant full-length, commercial (Promega)
T2 sequence (Q13976 2-671): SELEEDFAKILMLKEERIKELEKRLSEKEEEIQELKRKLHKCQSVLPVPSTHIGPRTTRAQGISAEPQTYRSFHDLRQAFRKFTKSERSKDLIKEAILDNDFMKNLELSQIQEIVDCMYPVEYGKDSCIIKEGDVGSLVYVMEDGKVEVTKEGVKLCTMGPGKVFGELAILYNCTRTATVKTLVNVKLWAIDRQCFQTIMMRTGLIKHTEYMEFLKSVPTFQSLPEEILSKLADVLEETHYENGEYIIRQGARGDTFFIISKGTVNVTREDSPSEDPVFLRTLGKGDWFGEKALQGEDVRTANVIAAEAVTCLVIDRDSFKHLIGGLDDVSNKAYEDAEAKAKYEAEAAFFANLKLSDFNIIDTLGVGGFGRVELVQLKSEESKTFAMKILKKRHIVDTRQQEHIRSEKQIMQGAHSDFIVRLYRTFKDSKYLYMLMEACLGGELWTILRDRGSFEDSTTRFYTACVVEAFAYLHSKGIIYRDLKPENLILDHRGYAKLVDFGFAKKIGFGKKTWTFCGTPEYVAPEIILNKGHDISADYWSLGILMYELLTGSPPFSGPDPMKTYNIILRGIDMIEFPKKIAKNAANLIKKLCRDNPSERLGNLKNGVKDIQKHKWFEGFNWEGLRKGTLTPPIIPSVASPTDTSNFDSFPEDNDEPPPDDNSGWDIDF

| SMILES | IC50 (cGKII) [nM] | pIC50 (cGKI) |
| --- | --- | --- |
| COc1ccc(CCNc2nccc(-c3ccc4ccccc4c3)n2)cc1OC [AP-C1] | 316 | – |
| c1csc(-c2ccnc(NCCc3c[nH]c4ccccc34)n2)c1 [AP-C2] | 6310 | – |
| COc1ccc(CCNc2nccc(-c3ccc4c(c3)OCCO4)n2)cc1OC [AP-C3] | 501 | – |
| c1ccc2c(CCNc3nccc(-c4ccc5c(c4)OCCO5)n3)c[nH]c2c1 [AP-C4] | 6310 | – |

More lines, main results first:

| IC50 (cGKII) [nM] | SMILES | pIC50 (cGKI) |
| --- | --- | --- |
| 63.1 | C#CCNc1nccc(-c2ccc(-n3ccnc3)cc2)n1 [AP-C5] | potency of inhibition of cGKI and PKA was markedly lower than of cGKII |
| 316 | OCCNc1nccc(-c2ccc(-n3ccnc3)cc2)n1 [AP-C6] | potency of inhibition of cGKI and PKA was markedly lower than of cGKII |
| 10000 | c1coc(CNc2nccc(-c3ccc(-n4ccnc4)cc3)n2)c1 [AP-C7] | – |
